How the values were obtained:
[1] = Positive allosteric modulator activity at human CB2R expressed in CHO-K1 cell membrane assessed as CP55940 EC50 for [35S]GTPgammaS binding at 100 nM measured after 90 mins by liquid scintillation counting analysis (Rvb = 1.9 nM)
[2] = Positive allosteric modulator activity at human CB2R expressed in CHO-K1 cell membrane assessed as CP55940 EC50 for [35S]GTPgammaS binding at 1 nM measured after 90 mins by liquid scintillation counting analysis (Rvb = 1.9 nM)

SMILES	EC50 [1]	EC50 [2]
Cc1c(Br)cn(Cc2ccccc2F)c(=O)c1NC(=O)C1CCCCCC1	7 nM	3.4 nM
Cc1c(Br)cn(Cc2ccccc2Cl)c(=O)c1NC(=O)C1CCCCCC1	2.4 nM	2.6 nM
